Patent EP2065382A1, “CGRP antagonists” (Boehringer Ingelheim Pharma GmbH & Co. KG, priority 2007, dated 2009)

biological target: T1, humanen CGRP-Rezeptor (Homo sapiens, UniProt O60894+Q16602); test: Binding studies with SK-N-MC cells expressing the human CGRP receptor (125I-CGRP displacement on membrane homogenate); details: 50 pM 125I-Iodotyrosyl-CGRP, 180 min at room temperature
T1 construct: SK-N-MC-Zellen werden in "Dulbecco's modified Eagle Medium" kultiviert; endogenous in cells; host or cells: SK-N-MC cells (membrane homogenate)
Protocol: A. Bindungsstudien mit (den humanen CGRP-Rezeptor exprimierenden) SK-N-MC-Zellen
SK-N-MC-Zellen werden in "Dulbecco's modified Eagle Medium" kultiviert. Das Medium konfluenter Kulturen wird entfernt. Die Zellen werden zweimal mit PBS-Puffer (Gibco 041-04190 M) gewaschen, durch Zugabe von PBS-Puffer, versetzt mit 0.02% EDTA, abgelöst und durch Zentrifugation isoliert. Nach Resuspension in 20 ml "Balanced Salts Solution" [BSS (in mM): NaCl 120, KCl 5.4, NaHCO3 16.2, MgSO4 0.8, NaHPO4 1.0, CaCl2 1.8, D-Glucose 5.5, HEPES 30, pH 7.40] werden die Zellen zweimal bei 100 x g zentrifugiert und in BSS resuspendiert. Nach Bestimmung der Zellzahl werden die Zellen mit Hilfe eines Ultra-Turrax homogenisiert und für 10 Minuten bei 3000 x g zentrifugiert. Der Überstand wird verworfen und das Pellet in Tris-Puffer (10 mM Tris, 50 mM NaCl, 5 mM MgCl2, 1 mM EDTA, pH 7.40), angereichert mit 1% Rinderserum-Albumin und 0.1% Bacitracin, rezentrifugiert und resuspendiert (1 ml / 1000000 Zellen). Das Homogenat wird bei -80°C eingefroren. Die Membranpräparationen sind bei diesen Bedingungen für mehr als 6 Wochen stabil.
Nach Auftauen wird das Homogenat 1:10 mit Assay-Puffer (50 mM Tris, 150 mM NaCl, 5 mM MgCl2, 1 mM EDTA, pH 7.40) verdünnt und 30 Sekunden lang mit einem Ultra-Turrax homogenisiert. 230 µl des Homogenats werden für 180 Minuten bei Raumtemperatur mit 50 pM ^125I-Iodotyrosyl-Calcitonin-Gene-Related Peptide (Amersham) und ansteigenden Konzentrationen der Testsubstanzen in einem Gesamtvolumen von 250 µl inkubiert. Die Inkubation wird durch rasche Filtration durch mit Polyethylenimin (0.1%) behandelte GF/B-Glasfaserfilter mittels eines Zellharvesters beendet. Die an Protein gebundene Radioaktivität wird mit Hilfe eines Gammacounters bestimmt. Als nichtspezifische Bindung wird die gebundene Radioaktivität nach Gegenwart von 1 µM humanem CGRP-alpha während der Inkubation definiert.
Die Analyse der Konzentrations-Bindungskurven erfolgt mit Hilfe einer computergestützten nichtlinearen Kurvenanpassung.

T1 sequence (Q16602 23-461): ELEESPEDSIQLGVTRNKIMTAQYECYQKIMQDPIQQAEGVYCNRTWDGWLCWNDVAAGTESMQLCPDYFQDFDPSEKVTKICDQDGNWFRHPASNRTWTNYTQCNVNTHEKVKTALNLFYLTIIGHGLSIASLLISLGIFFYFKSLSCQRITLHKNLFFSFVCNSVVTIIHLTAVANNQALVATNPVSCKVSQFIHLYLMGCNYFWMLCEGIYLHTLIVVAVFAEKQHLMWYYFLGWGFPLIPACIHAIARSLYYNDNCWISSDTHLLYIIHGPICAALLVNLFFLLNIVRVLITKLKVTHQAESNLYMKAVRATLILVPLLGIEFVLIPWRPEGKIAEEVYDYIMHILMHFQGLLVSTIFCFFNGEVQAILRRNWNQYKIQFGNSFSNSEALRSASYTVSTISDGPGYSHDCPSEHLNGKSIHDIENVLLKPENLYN
T1 sequence (O60894 27-148): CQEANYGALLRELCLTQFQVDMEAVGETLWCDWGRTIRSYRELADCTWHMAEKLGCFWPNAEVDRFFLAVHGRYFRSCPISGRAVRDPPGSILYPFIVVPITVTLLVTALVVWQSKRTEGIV

Q: For Cn1cc(C(=O)c2cc(N3CCC(n4c(=O)[nH]c5ncccc54)CC3)ncn2)c2ccc(F)cc21 [(21)], which Ki is on record?
A: 2 nM

Q: With O=C(c1cc(N2CCC(n3c(=O)[nH]c4ncccc43)CC2)ncn1)c1cn(CCCN2CCCCC2)c2ccccc12 [(25)] as the molecule, how does the Ki read?
A: 16 nM

Q: For Cn1cc(C(=O)c2cc(N3CCC(n4cc(-c5ccccc5)[nH]c4=O)CC3)ncn2)c2ccccc21 [(14)], which Ki is on record?
A: 6 nM

Q: How did the Ki turn out when COc1ccc2c(c1)CCN(C1CCN(c3cc(C(=O)c4cn(C)c5ccccc45)ncn3)CC1)C(=O)N2 [(4)] was run?
A: 4 nM

Q: With Cn1cc(C(=O)c2cc(N3CCC(n4c(=O)[nH]c5ccccc54)CC3)ncn2)c2ccccc21 [(9)] as the molecule, how does the Ki read?
A: 251 nM

Q: For O=C(c1cc(N2CCC(n3c(=O)[nH]c4ncccc43)CC2)ncn1)c1c[nH]c2ccccc12 [(1)], which Ki is on record?
A: 120 nM

Q: Which Ki does the source give for CN(C)CCCn1cc(C(=O)c2cc(N3CCC(n4c(=O)[nH]c5ncccc54)CC3)ncn2)c2ccccc21 [(42)] here?
A: 6 nM

same assay, conditions: 50 pM 125I-Iodotyrosyl-CGRP, 180 min at room temperature, read-out: Ki

Q: With Cn1cc(C(=O)c2cc(N3CCC(n4c(=O)[nH]c5ncccc54)CC3)ncn2)c2ccccc21 [(2)] as the molecule, how does the Ki read?
A: 5 nM

Q: For Cc1ccc2c(C(=O)c3cc(N4CCC(n5c(=O)[nH]c6ncccc65)CC4)ncn3)cn(C)c2c1 [(30)], which Ki is on record?
A: 25 nM
